Reference: patent US20200384072A1, “THERAPY OF IONIZING RADIATION-INDUCED DISORDERS” (SCK-CEN, priority 2019, published 2020)

Assays:
[1] = test system: TICAE cells; assay: Scrape loading and dye transfer (SLDT), gap junctional coupling after irradiation, TICAE cells; type: cell-based, human; details: Carbenoxolone 50 μM, single 0.1 or 5 Gy, 6 h and 72 h p.i.
Description: (§1) The scrape loading and dye transfer assay (SLDT) was used to assess gap junctional function after IR exposure. TICAE and TIME cells were seeded in a 24-well plate at a density of 1×10^5 cells/well in four to six biological replicates. Three days later, cells reached 100% confluence and the medium was refreshed before irradiation with 1 ml/well for single irradiation experiment and 1.5 ml for fractionated irradiation experiment. At different time points after irradiation (6 and 72 h post single irradiation, or 72 h post fractionated irradiation) the cells were washed 3 times with a scrape loading and dye transfer (SLDT) buffer (137 mM NaCl, 5.36 mM KCl, 0.81 mM MgCl2, 5.55 mM […], 25 mM HEPES, pH 7.4). Then, the cells were incubated with a SLDT solution composed of SLDT buffer and 400 μM 6-carboxyfluorescein (6-CF, 0.376 kDa) (Sigma-Aldrich Co. LCC, Diegem, Belgium) for one minute. A vertical scratch was made in the middle of each well, using a 20G needle (Becton Dickinson, Erembodegem, Belgium). After another one minute incubation, the cells were washed 6 times with HMS supplemented with 25 mM HEPES (Sigma-Aldrich Co. LCC, Diegem, Belgium). […] The relative area of 6-CF transfer was calculated using FIJI software. By analyzing the area of the dye diffusion from the first line of cells to adjacent cells, the gap junctional coupling was determined.

[2] = test system: primary brain microvascular endothelial cells (pBMECs); assay: γ-H2AX counts after local 3×3 mm X-ray irradiation (irradiated and bystander zones), pBMECs; type: cell-based, mouse; details: 1 Gy, 3 h post-irradiation
Description: Cortices, from 10-12 week old mice, were isolated by removing cerebellum, striatum, optic nerves, brain white matter, outer vessels and meninges. After homogenization with a Dounce homogenizer in WBB (Washing Buffer B: HMS, 10 mM Hepes, 0.35 g/L NaHCO3, 0.1% BSA), the homogenate was mixed with 30% dextran in WBB and centrifuged at 3000×g for 25 min at 4° C. The pellet containing the vascular component was then resuspended in WBB and filtered through a 60 μm NY60 Nylon Net Filter (Millipore, Darmstadt, Germany). Following centrifugation at 1000×g for 7 min at room temperature, the pellet was digested in collagenase/dispase supplement with DNase I (Roche Diagnostics, Vilvoorde, Belgium) and TLCK (Tosyl, Lysin chloromethyl ketone, sigma-aldrich) for 33 min at 37° C. in a shaking water bath. The digested capillary suspension was then seeded after multiple washing steps on wells coated with matrigel or glass coated with Corning Cell-Tak (VWR, Leuven, Belgium). For the isolation of intact capillaries the protocol was aborted just before the digestion step.
(§2) A defined area of the cell culture dishes were exposed to X-rays (1Gy or 20 Gy) by using a small animal radiation research platform (SARRP, Xstrahl, 220 kV, 13 mA), making use of a 3×3 mm collimator. Whole dish irradiation was done using a 10×10 cm broad-beam collimator, while localized Irradiation was performed with a 3×3 mm collimator. A Gafchromic RTQA2 film, with a sensitivity of 0.02 Gy, was placed underneath the cell dishes in order to delineate the irradiated zone.
(§3) Cells were fixed for 25 min with 4% formaldehyde (VWR) and blocked for 30 min with blocking buffer (5% normal goat serum, 1% bovine serum albumin (BSA), 0.2% Triton X-100 in PBS D+). Overnight incubation with primary antibody (1/500 anti-γ-H2AX in dilution buffer, 1/10 blocking buffer in PBS D+) was followed by a 1 h incubation with 1/400 XX-biotin-goat-anti-mouse antibody in dilution buffer, followed by a 1 h incubation with 1/400 streptavidin-alexa488 in PBS D+. Nuclei were stained with 1 μg/mL DAPI in PBS D+ for 10 min and cells were kept in PBS D+ supplemented with NaN3 at 4° C. All steps except the overnight incubation which was carried out at 4° C., were carried out at room temperature and cell cultures were rinsed thoroughly with PBS D+ between all incubation steps. Imaging was performed with an automated BD Pathway 435 imaging system (10× objective, 10×10 montage resulting in an overall image size of 8.5×6.5 mm). We then quantified the number of γ-H2AX-foci positive nuclei in the directly irradiated and bystander areas and expressed the count as a percentage relative to the number of nuclei and subtracted the percentage of background γ-H2AX signal in non-irradiated paired control cultures for each experiment. For counting γ-H2AX foci, images were thresholded to remove background pixel noise below the foci level. Where applicable, results were normalized against vehicle (bar charts with a 100% vehicle bar without statistical variability or a horizontal line).

[3] = test system: TIME cells; assay: Scrape loading and dye transfer (SLDT), gap junctional coupling after irradiation, TIME cells; type: cell-based, human; details: Carbenoxolone 50 μM, single 0.1 or 5 Gy, 6 h and 72 h p.i.
Description: as §1

[4] = test system: RBE4 cells; assay: γ-H2AX counts after local 3×3 mm X-ray irradiation (irradiated and bystander zones), RBE4 cells; type: cell-based, rat; details: 1 Gy, 3 h post-irradiation, Cbx 50 μM, Gap26 161 μM, TAT-Gap19 200 μM, Xestospongin C 5 μM
Description: as §2, §3

[5] = test system: RBE4 cells; assay: Irradiation-induced ATP release, RBE4 cells; type: cell-based, rat; details: broad-beam 1 Gy, 5 min post-irradiation, BAPTA-AM 10 μM, NALC 1 mM, c-PTIO 100 μM
Description: ATP was measured using a luciferin-luciferase assay kit (Sigma-Aldrich) in combination with a luminometer plate reader (Victor3 1420 multi label counter; Perkin Elmer, Zaventem, Belgium).
Extracellular ATP measurements were initially carried out at different time-points post-irradiation, the effect of blockers on ATP release was tested at the 5 min post-irradiation time-point (time of maximum ATP release).

[6] = test system: RBE4 cells; assay: Cytosolic Ca2+ imaging after medium transfer from irradiated to recipient RBE4 cells; type: cell-based, rat
Description: Cells were seeded on glass coverslips (18 mm 0) coated with 3.5 μg/cm^2 Corning cell-tak (VWR, Leuven, Belgium) and ester loaded for 45 min with 10 μM Fluo-3-AM in HBSS-HEPES supplemented with 1 mM of probenecid and 0.01% of pluronic F127 at room temperature followed by de-esterification over 15 min. Imaging was performed using an inverted fluorescence microscope equipped with a ×40 oil immersion objective and an EM-CCD camera (QuantEM™ 512SC CCD camera, Photometrics, Tucson, Ariz.). For direct Ca^2+ measurements the loaded cells were irradiated and transferred to the microscopy stage. For medium transfer, the loaded cells were superfused for 1 min with HBSS-Hepes (1 mM), followed by 4 min with HBSS-Hepes conditioned by irradiated cultures. Fluorescence intensity changes in the cells were analyzed with custom-developed FluoFrames software (L. Leybaert, Ghent, Belgium). Ca^2+ changes were quantified as the area under the curve (AUC) of the Ca^2+ traces.

CC1(C)[C@@H](OC(=O)CCC(=O)O)CC[C@]2(C)[C@H]3C(=O)C=C4[C@@H]5C[C@@](C)(C(=O)O)CC[C@]5(C)CC[C@@]4(C)[C@]3(C)CC[C@@H]12 [Carbenoxolone, carbenoxolone]
6-CF dye spread (gap junctional dye coupling) [1]: inhibited the dye spread in all cases
γ-H2AX counts in the bystander zone (normalized to vehicle) [2]: significant decrease
γ-H2AX counts in the irradiated area (normalized to vehicle) [2]: significant decrease
6-CF dye spread (gap junctional dye coupling) [3]: inhibited the dye spread in all cases
γ-H2AX counts in the bystander zone (normalized to vehicle) [4]: significantly inhibited
γ-H2AX counts in the irradiated zone (normalized to vehicle) [4]: not statistically significant
irradiation-induced ATP release [5]: inhibited
AUC of Ca2+ transients in recipient bystander cells ([6]; inhibitor added to the irradiated culture 30 min before irradiation, NALC 1 mM): reduced the area under the curve (AUC)
[Ca2+]i responses in recipient cells ([6]; inhibitor added to the recipient cells, PPADS 50 μM): inhibited the [Ca^2]i responses
